For data set [1], the system named is trachea smooth muscle strips of Guinea pig contracted by methaco- line. In words: Relaxation in vitro of trachea smooth muscle strips contracted by methacholine. The following applies: Cavia porcellus, read-out: ED50 (the source's name). From the text:
In particular these latter compounds of the invention are also characterized by pronounced ability to induce relaxation of the bronchial and tracheal smooth muscle.

The test system of data set [2] is anhaestetized guinea pigs. As to the kind of experiment: Konzett-Ressler test, resolution of histamine-induced bronchospasm. It is filed as in vivo. Conditions: intrajugular administration; bronchospasm induced by i.v. histamine.
Another data set has as its system Guinea pigs. As to the kind of experiment: Guinea pig cough test (Charlier procedure, citric acid aerosol). The class given is in vivo. Conditions: for ED50: Cavia porcellus, ip, 1 h; for delay of first cough stroke: delay corresponding to the ED50, i.p. Here is the method:
(§1) The techniques described by Charlier et al. (Arch. Int. Pharmacodyn. 134, 306, 1961) and by Stefko et al. (J. Pharm. Exp. Therap., 108, 217, 1953), adapted with minor modifications, are used to investigate the antitussive properties of the compounds of the invention. Codeine phosphate is used as positive reference compound.
According to the Charlier procedure, Guinea pigs are exposed to a citric acid aerosol (7.5%) and cough is recorded 60 minutes after the antitussive treatment by i.p. route. Male animals of 300-400 g body weight are used in all the experiments. Guinea pigs are placed in a perspex box (20x30x30 cm) connected to an aerosol compressor; the animals are subjected to a citric acid saturated atmosphere, 60 minutes after the i.p. injection of a compound of the invention (0.1 and 0.3 M solutions; 1 ml/kg).
The total number of cough strokes and the delay of the first cough are recorded during the first five minutes.
Five guinea pigs are used for each dose level and the results are compared with controls (vehicle treatment) and codeine phosphate 0.07 M solution (standard treatment).
ED and the corresponding delay of first cough stroke are calculated.
The data obtained by i.p. administration are confirmed by oral administration.

The next data set relates to conscious mongrel dogs. As to the kind of experiment: Dog cough test (Stefko procedure, cough induced by electric stimulation of the trachea). The class given is in vivo. Here is the method: as §1
In the Stefko procedure, conscious mongrel dogs (15+3 kg body weight) are used; the compounds of the invention are tested for their ability to inhibit cough induced by electric stimulation.
Under general anesthesia, two insulated nichrome wires (0.4 mm diameter) are surgically implanted into the submucosa of the trachea.
About two days later, the dogs are placed in a sling and the exteriorized electrodes are connected to an electric stimulating device (such as Grass S 48 Mod.).
The stimulation parameters such as: delay 0.01 msec, duration 1 msec, frequency 30 Hz, are used.
An electrical stimulus of 1 sec is applied 10 times at 5 sec intervals in order to determine the minimum voltage necessary for eliciting reproducible cough responses. Then, tussive responses to the electrical stimuli are registered at 15, 30, 60, 90, 120, 150, 180, 240, 300 and 360 minutes after oral administration of the compounds of the invention.
The tussive responses are scored as follows: • 1: no response; 2: sigh or exaggerated expiration; • 3: marked cough; 4: one marked cough and one exaggerated expiration; 5: two marked coughs.
Six dogs are employed for each determination and the mean activity is calculated.
The inhibition percent of the cough response and the duration of activity are compared with codeine.

Data set [3] deals with male New Zealand white rabbits. As to the kind of experiment: Mucus regulating properties in bronchitic rabbits (5% H2SO3 aerosol), sputum parameters as AUC. The following applies: for Fucose (mg/ml), AUC as a 100% compared to bronchitic controls / Galactose (mg/ml), AUC as a 100% compared to bronchitic controls / Mucus produc-tion (ml/kg), AUC as a 100% compared to bronchitic controls / Phospho-lipids (mg/ml), AUC as a 100% compared to bronchitic controls / Protein (mg/ml), AUC as a 100% compared to bronchitic controls / Sialic acid (mg/ml), AUC as a 100% compared to bronchitic controls / Viscosity (cps), AUC as a 100% compared to bronchitic controls: Table 2, oral, equimolecular amounts to S-carboxymethyl cysteine. The class given is in vivo. The protocol:
The mucus regulating properties of the compounds of the invention are investigated "in vivo" by means of experiments carried out on male New Zealand white rabbits. The animals are submitted to inhalation of a 5% H2S03 aqueous solution by aerosol (exposition of 3 hours a day for 3 alternate days), to induce a chronic bronchial inflammatory disease which causes a production of pathological sputum in the bronchial tree.
Aim of the experiments is to evaluate modifications of selective parameters such as dry weight of the sputum, viscosity, content in proteins, phospholipids, galactose, sialic acid and fucose, induced in this pathological sputum by pharmacological treatment with the compounds of the invention.
To this purpose, the sputum produced in the bronchial tree is collected daily, through a "T" shaped glass cannula, inserted in the trachea, before and after oral twice a day (9.00 a.m. and 4.00 p.m.) treatment with one of the compounds of the invention.
The schedule treatment procedure is shown in the following Schema 1: [drawing 23] where 0 indicates the day of implantation of the tracheal cannula; -7-5-3 indicate the days of H2S03 treatment (H); 1,2,3,4 indicate the days of oral administration of the compounds of the invention (T) and the time of mucus collection (M).
The mucus collected in day 1 in the morning is considered as a blank; 7 indicates the day of the animal sacrifice after the mucus collection.
The sputum samples are stored in the freezer (-20°C) until the investigation of biological and rheological parameters is carried out.
The samples are investigated for relative viscosity, measured at 37°C with a Brookfield viscometer (model LT VD) equipped with a 1,565° cone-plate, and aliquoted for biochemical analysis of protein, phospholipids, galactose, sialic acid and fucose contents. Dry weight of the mucus is also determined. For each parameter, cumulative data are referred to a seven days period after the beginning of the treatment and they are extrapolated using the AUC method (area under curve) calculated by the trapezoidal rule. Finally the data are compared with data obtained from controls (vehicle treatment), non bronchitic rabbits (vehicle treatment) and positive controls bronchitis rabbits treated with 0.153 M 2-carboxymethyl cysteine.

Data set [4] is described as follows: Acute toxicity, LD50 in mice. The following applies: mouse, in vivo. The source says:
LD50 values above 1 g/kg are generally determined both after oral and intraperitoneal administration of the compounds of the invention.

Setting [5] is: Table 1, 0.153 M, oral twice a day, seven days period.

The structures appear in SMILES notation. Where two headings read alike, the source gives them in different places.

Regarding `COc1cc(C=CC(=O)N2CCSC2Cn2cnc3c2c(=O)n(C)c(=O)n3C)cc(CN2CCOCC2)c1O` (centres unmarked) [2-LTl',3'-dimethyl-xanthin-7'-yl)methyl]-3-[(3-morpholinylmethyl-4'-hydroxy-5'-methoxy)cinnamoyi7thiazolidine], in data set [1], the EC50 came to 190 µM. In data set [2], the “activity compared with aminophylline in the resolution of bronchospasm” value is on record as “at least four times more active than aminophylline”.

Turning to `Cn1c(=O)c2c(ncn2CC2NC(C(=O)O)CS2)n(C)c1=O` (centres unmarked) [2-[(1',3'-dimethylxanthin-7'-yl)methyl]thiazolidine-4-carboxylic acid], in the data set on Guinea pigs (citric acid aerosol 7.5%, cough recorded 60 minutes after i.p. treatment, read-out: ED50), the ED50 was found to be 62 mg/kg. In the data set with Guinea pigs, the “delay of first cough stroke” value stood at 213%. The “duration of action compared with codeine” value in the data set with Guinea pigs (guinea pig cough test) is “more favourable duration of action in comparison to codeine”. Besides, in the data set with conscious mongrel dogs (20 mg/kg, dogs), the “duration of action compared with codeine” value is reported as “favourably compares with codeine for its duration of action”. For the same compound, the inhibition at 20 mg/kg with conscious mongrel dogs (Canis lupus familiaris, 20 mg/kg, oral, read-out: inhibition of the cough stimulus) worked out at 32%. Also, in data set [3], the “Fucose (mg/ml), AUC as a 100% compared to bronchitic controls” value is 77%; the “Galactose (mg/ml), AUC as a 100% compared to bronchitic controls” value is 82%; the “Mucus produc-tion (ml/kg), AUC as a 100% compared to bronchitic controls” value is on record as 128%; the “Phospho-lipids (mg/ml), AUC as a 100% compared to bronchitic controls” value came out at 78%. Besides, in data set [3], the “Protein (mg/ml), AUC as a 100% compared to bronchitic controls” value came out at 80%; the “Sialic acid (mg/ml), AUC as a 100% compared to bronchitic controls” value is 81%; the “Viscosity (cps), AUC as a 100% compared to bronchitic controls” value turned out to be 55%.

Consider `Cn1c(=O)c2c(ncn2CC2NCCS2)n(C)c1=O` (centres unmarked) [2-[(1',3'-dimethylxanthin-7'-yl)methyl]thiazolidine], for which the LD50 in data set [4] (ip, read-out: LD 50 (i.p.)) worked out at 480 mg/kg. Also, the LD50 in data set [4] (oral, read-out: LD 50 (os)) was found to be 600 mg/kg. Besides, in data set [3], the “Fucose (mg/ml), AUC as a 100% compared to bronchitic controls” value was determined as 66%; the “Galactose (mg/ml), AUC as a 100% compared to bronchitic controls” value is recorded as 5%; the “Mucus produc-tion (ml/kg), AUC as a 100% compared to bronchitic controls” value stood at 80%; the “Phospho-lipids (mg/ml), AUC as a 100% compared to bronchitic controls” value is listed as 30%. For the same compound, in data set [3], the “Protein (mg/ml), AUC as a 100% compared to bronchitic controls” value was 58%; the “Sialic acid (mg/ml), AUC as a 100% compared to bronchitic controls” value worked out at 101%; the “Viscosity (cps), AUC as a 100% compared to bronchitic controls” value was determined as 16%.

On to `N[C@@H](CSCC(=O)O)C(=O)O` [S-carboxy-methyl cy steine, S-carboxymethyl cysteine, reference compound], for which, in data set [3] (setting [5]), the “Fucose mg/ml, AUC as a % compared to bronchitis controls” value came to 56%; the “Galactose mg/ml, AUC as a % compared to bronchitis controls” value is on record as 64%; the “Mucus production ml/kg, AUC as a % compared to bronchitis controls” value came to 97%; the “Phospholipids mg/ml, AUC as a % compared to bronchitis controls” value was found to be 108%. In addition, in data set [3] (setting [5]), the “Protein mg/ml, AUC as a % compared to bronchitis controls” value is given as 105%; the “Sialic acid mg/ml, AUC as a % compared to bronchitis controls” value turned out to be 60%; the “Viscosity (cps), AUC as a % compared to bronchitis controls” value came out at 52%.

Regarding `COc1ccc2c3c1O[C@H]1[C@@H](O)C=C[C@H]4[C@@H](C2)N(C)CC[C@@]341` [codeine phosphate, reference compound], in the data set with Guinea pigs, the ED50 is approximately 23 mg/kg and the “delay of first cough stroke” value turned out to be 170%. The duration of activity with conscious mongrel dogs (8 mg/kg, oral) fell in the range of 2 to 4 h. Moreover, in the data set with conscious mongrel dogs (Canis lupus familiaris, po, read-out: inhibition of the cough stimulus), the inhibition at 8 mg/kg amounted to 52%.

Take `Cn1c(=O)c2c(ncn2CC(O)CO)n(C)c1=O` (centres unmarked) [dihydroxypropyltheophylline, reference compound]: the EC50 in data set [1] (reference, unit inferred) came to 76 µM.

The values above are taken from patent EP0171005A2, “Xanthinylmethylthiazolidines, process for their preparation and pharmaceutical compositions containing them” (BOEHRINGER BIOCHEMIA ROBIN S.p.A., priority 1984, dated 1986).
